Read-outs that look alike come from different tables or passages of the source.
What was measured:
[1] = system: recurrent uterine and ovarian cancers; settings: cited from earlier work; for response rates: second line, recurrent disease, cisplatin uterine, carboplatin ovarian cancers
[2] = system: CCR4 expression on T cells in PBMCs; assay: In vitro drug experiment: CCR4 expression on T cells in PBMCs; settings: 30 ng/ml, 72 hours
Method: To determine the frequency and phenotype of T cell populations in PBMCs, multicolour flow cytometry was performed using the following surface antibodies: anti-CD3, anti-CD8, anti-CD4, anti-CD25, and anti-CCR4. Antibodies were diluted in dPBS with 5% HS (staining buffer). Cells were stained at room temperature for 15 mins at a final concentration of 10^7 cells/150 μl of antibody cocktail. Cells were then washed twice with stain buffer. A fixable dead cell dye (live/dead, fixable aqua dead cell stain kit, Life Technologies, USA) was used to distinguish between dead and live cells. […] Intracellular levels of FoxP3 were determined following fixation and permeabilisation of cells using a fixation/permeabilisation buffer kit (eBioscience, USA). […] Fluorescence minus one (FMO) controls and isotype-matched antibodies were also used to enable accurate gating. Data were analysed using Flowjo software (TreeStar, USA).
CD4+ and CD8+ T cells were purified by labelling cells with the respective antibodies as described above, then using fluorescence activated cell sorting. […] Following incubation, cells were washed and CCR4 expression on Tregs and effector T cells were determined using flow cytometry as described above. […]

[3] = system: CCR4 expression on T cells
Method: (§1) Ten (10) human patients with gynaecological cancers with ages ranging from 62-82 years were recruited in a bicentric phase II trial. […] Disease progression was determined using RECIST and GCIG CA125 criteria (Rustin G J et al., (2011) Official journal of the International Gynaecological Cancer Society February; 21(2):419-23). From the time of recruitment, written consent was obtained from patients and pre-treatment blood samples were collected. Patients received oral doses of 50 mg cyclophosphamide twice daily (morning and evening), for 3 consecutive days and blood was collected 2 weeks later in EDTA coated tubes for whole blood and serum separation tubes for sera (BD Vacutainer, BD, USA). The treatment cycle and blood sampling were repeated at fortnightly intervals for up to 8 cycles. For healthy samples, buffy coats were obtained from routine blood donations, acquired at the Australian Red Cross Blood Service.
Peripheral blood mononuclear cells (PBMCs) were isolated within 24 hours of blood collection via Ficoll (Amersham Pharmacia Biotech, Sweden) density gradient centrifugation. Cells were then washed in Dulbecco's Phosphate Buffered Saline (dPBS, Sigma-Aldrich, USA). The isolated PBMCs were frozen down in a freeze medium containing 10% DMSO (Sigma-Aldrich, USA) and 90% heat-inactivated fetal calf serum (GIBCO, Life Technologies, USA) or 90% human AB serum (Sera Laboratories International, UK) at a speed of 1° C./min at −80° C. and subsequently stored in liquid nitrogen. Upon thawing, each vial of frozen PBMCs was quickly defrosted in a 37° C. water-bath and re-suspended in AIM-V media (Life Technologies, USA) with 5% normal human serum (HS, Sigma-Aldrich, USA) (complete AIM-V media).
Cells were then washed twice with stain buffer. […] Data were analysed using Flowjo software (TreeStar, USA).
To investigate the effect of cyclophosphamide on CCR4 expression within T cells, the frequency of CCR4^+ cells pre-treatment (n=mean of 7-8 time points) was compared to the frequencies following each cycle of treatment (n=mean of 3-6 time points) for each individual patient.

[4] = system: ID8 tumour bearing animals; settings: mouse, in vivo
Method: To address the effects of LDCy on immunity in tumour bearing animals, ID8 implanted animals (n=5/group) were treated at post challenge (at the onset of detectable tumour growth in vivo) with one cycle of LDCy and assessed changes in T cell subsets ex-vivo at days 1, 7 and 14 post in vivo treatment by flow cytometry.

[5] = system: CD107a on CD4+ and CD8+ T cells; settings: 3 increased % CCR4 patients; PMA and ionomycin 6 hours
Method: The cytotoxic capacity of T cells was determined by culturing PBMCs with complete AIM-V media at 10^6 cells/500 μl/well in a 48 well plate. […] Brefeldin A (eBioscience, USA) was added at 3 μg/ml for the last 4 hours of incubation. After incubation, cells were washed and labelled for surface markers as described above. Cells were analysed using flow cytometry, unstimulated cells, fluorescence minus one (FMO) and isotype matched antibodies were also used as controls. Data were collected and analysed as above.
The frequencies of CD107a+ cells within CD4+ and CD8+ T cells were determined using samples from 3 of the 4 increased % CCR4 patients at one of the time points when CCR4+ T cell frequencies was increased.

[6] = system: advanced treatment-refractory gynaecological tumours
Method: as §1

[7] = system: acetylation of H3K9, H3K14 and H3K18; assay: Histone 3 acetylation detection by flow cytometry; format: cell-based, human; settings: 72 hours
Method: The acetylation of histone 3 at lysine (H3K)9, H3K14 and H3K18 was assessed using flow cytometry. […] In the last 4 hours of culture, 50 nM panobinostat (LBH589, a pan histone deacetylase (HDAC) inhibitor) was added to the IL-2 cultures. Cells were harvested and prepared for flow cytometry analysis as described above. Following surface labelling, fixation and permeabilisation, cells were labelled with unconjugated anti-H3K9, anti-H3K14 and anti-H3K18 (Cell Signalling Technology, USA). Secondary labelling was performed using an Alexa Fluor 488 conjugated donkey anti-rabbit Ig antibody (Biolegend, USA). Data were collected and analysed as above.

[8] = increased % CCR4 patients at time points of CCR4 increase, p<0.05

N.N.[Cl][Pt][Cl] [cisplatin]
response rates [1]: around 20%

N.N.O=C([O-])C1(C(=O)[O-])CCC1.[Pt+2] [carboplatin]
response rates [1]: around 20%

CC(=O)O[C@H]1C(=O)[C@@]2(C)[C@H]([C@H](OC(=O)c3ccccc3)[C@]3(O)C[C@H](OC(=O)[C@H](O)[C@@H](NC(=O)c4ccccc4)c4ccccc4)C(C)=C1C3(C)C)[C@]1(OC(C)=O)CO[C@@H]1C[C@@H]2O [paclitaxel]
frequency of CCR4+ T cells in healthy PBMCs [2]: does not Significantly Increase

O=P1(N(CCCl)CCCl)NCCCO1 (centres unmarked) [cyclophosphamide]
mean ratio of CCR4+ Tconvs to CCR4+ Tregs, increased % CCR4 vs constant % CCR4 patients ([3]; first 3 cycles of treatment, p<0.01): over 2 fold
mean ratio of CCR4+ CD8+ T cells to CCR4+ Tregs, increased % CCR4 vs constant % CCR4 patients ([3]; first 3 cycles of treatment, p<0.05): over 3 fold
frequency of CCR4+ cells within Tregs compared to pre-treatment ([3]; increased % CCR4 patients at time points of CCR4 increase): not significantly increased
fold increase in the frequency of CCR4+ cells within CD8+ T cells compared to pre-treatment [3, 8]: 5 fold
fold increase in the frequency of CCR4+ cells within Tconvs compared to pre-treatment [3, 8]: 5 fold
CCR4 mean fluorescence intensity (MFI) within Tregs, Tconvs and CD8+ T cells relative to pre-treatment ([3]; increased % CCR4 patients, all 3 populations): remained unchanged
patients with significant increases in the frequency of CCR4+ cells within CD3+ T cells ([3]; of the 10 patients, following at least one cycle, within the first 3 cycles): 4
CCR4+ CD4 T cell effectors in peripheral blood [4]: a trend towards CCR4^+ CD4 T cell effector increases
CCR4+ Treg in peripheral blood [4]: no increases
CCR4+CD8+ T cells in peripheral blood [4]: clear increases
CD69+ CD4 T cell effectors in TILS [4]: a trend towards CD69^+ CD4 T cell effector increases
CD69+ Treg in TILS [4]: no CD69^+Treg increases
CD69+CD8+ T cells in tumour infiltrating lymphocytes (TILS) [4]: clearly increased
mean frequency of CD107a+ cells in CD4+ and CD8+ populations vs pre-treatment [5]: increased compared to pre-treatment samples, however neither increase was significant
clinical benefit (share of patients) ([1]; low dose, women with recurrent ovarian cancer): 25-44%
mean overall survival ([6]; CCR4 spike patients (n=4)): 476 ± 80 days
mean overall survival ([6]; CCR4 steady patients (n=6)): 163 ± 37 days
patients who achieved stable disease ([6]; of the 4 CCR4 spike patients): 3
patients who achieved stable disease ([6]; of the 6 CCR4 steady patients): None
increase in survival ([6]; patients with CCR4 up-regulation in vivo and in the in vitro CUP pre-test): > 300 days
survival of CCR4 spike patients relative to CCR4 steady patients ([6]; spike vs steady patients): approximately 3 times

B1: IL-4: IL-4 (R&D systems, USA), cytokine used at 10 ng/ml (protein, UniProt P05112 25-153, looked up)
Interleukin-4: HKCDITLQEIIKTLNSLTEQKTLCTELTVTDIFAASKNTTEKETFCRAATVLRQFYSHHEKDTRCLGATAQQFHRHKQLIRFLKRLDRNLWGLAGLNSCPVKEANQSTLENFLERLKTIMREKYSKCSS
acetylation of H3K9 in CD8+ T cells ([7]; IL-4 10 ng/ml, p<0.05): slight but significant decrease
acetylation of H3K14 ([7]; mafosfamide […] or IL-4 10 ng/ml): Neither mafosfamide nor IL-4 treatment resulted in a change
